In patent publication US10197581B2, “Vitamin D assays” (Enzo Life Sciences, Inc., priority 2013, dated 2019):
Where a name gives a salt, the structure may show the parent alone. Read-outs that look alike come from different tables or passages of the source.

Columns and labels:
[1] = molecular target: T1, vitamin D binding protein (DBP) (Homo sapiens, UniProt P02774); experiment: Release of bound 25OHD3 from DBP in serum samples at varied release reagent concentrations (ELISA); format: biochemical; parameters: from tissue; host or cells: human serum; details: for percent inhibition by released 25OHD: vs controls with no 25OHD
T1 sequence (P02774 17-474): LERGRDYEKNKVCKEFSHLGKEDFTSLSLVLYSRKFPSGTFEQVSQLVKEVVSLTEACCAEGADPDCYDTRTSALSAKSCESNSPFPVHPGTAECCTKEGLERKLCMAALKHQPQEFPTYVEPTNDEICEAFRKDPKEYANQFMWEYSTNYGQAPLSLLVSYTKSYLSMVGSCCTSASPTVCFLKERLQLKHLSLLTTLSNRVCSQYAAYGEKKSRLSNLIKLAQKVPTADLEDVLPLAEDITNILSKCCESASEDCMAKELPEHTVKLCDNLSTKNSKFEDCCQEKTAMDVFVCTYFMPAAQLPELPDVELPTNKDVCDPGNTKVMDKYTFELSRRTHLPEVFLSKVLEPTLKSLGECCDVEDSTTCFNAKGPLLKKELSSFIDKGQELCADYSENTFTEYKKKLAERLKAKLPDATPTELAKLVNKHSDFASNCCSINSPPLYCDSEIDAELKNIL
Description: Each buffer was diluted to provide dissociation buffers with multiple concentrations of a single release reagent.

[2] = molecular target: T1, vitamin D binding protein (DBP); experiment: as above; format: biochemical; parameters: human serum containing 20 or 40 ng/mL 25OHD3 were treated with the various dissociation buffers; from tissue; host or cells: human serum; details: major release reagents in combination
[3] = molecular target: T1, vitamin D binding protein (DBP); experiment: Screening of dissociation buffer components (release reagents) in the 25OHD ELISA; format: biochemical; details: for release of 25OHD from DBP and maintaining 25OHD availability for antibody binding / tolerance in the assay: component of dissociation buffer; for effect towards dissociation of 25OHD from DBP: earlier experiments
Description: In order to optimize the ELISA 25OHD assay, components of the dissociation buffer, the assay buffer and the wash buffer, and conditions for performing various steps in the protocol were tested in the assay. Various reagents were tested alone or in combination for their effects on dissociation of 25OHD from DBP.
In addition, various types and concentrations of buffer salts (e.g., Tris, MES, citrate) were used in the dissociation buffers, assay buffers and wash buffers. Dissociation and wash buffers having a pH from 4-8 were tested. Dissocation was performed at different temperatures (RT, 37° C., 65° C.) and in different incubation vessels (polypropylene or polystyrene) and the competitive ELISA was performed using various different 25OHD conjugates.

[4] = format: physicochemical
[5] = system: sheep monoclonal anti-25OHD antibody (Bioventix); experiment: Cross-reactivity of vitamin D metabolites in the optimized 25OHD competitive ELISA; format: binding; details: for % cross-reactivity: determined at the OD corresponding to the ED50 of 25OHD3; for ED50: optimized 25OHD ELISA, metabolite serially diluted in Tris buffer
Description: Ten vitamin D metabolites were tested for cross-reactivity in the optimized 25OHD ELISA assay described above. New concentrated stock solutions were prepared from dry chemicals for all metabolites. For cross-reactivity testing, each metabolite was prepared and serially diluted in a Tris buffer. Metabolites and the concentration ranges tested are in Table 3. The metabolite solutions were used as samples and mixed with dissociation buffer and the assay carried out as previously described.

| Compound | release of 25OHD from DBP and maintaining 25OHD availability for antibody binding [3] | % cross-reactivity [5] [%] | ED50 [5] [µg/mL] | other results |
| --- | --- | --- | --- | --- |
| CCCC[n+]1ccc(C)cc1.[Cl-] | effective and generally compatible with the assay | – | – | percent inhibition by released 25OHD ([1]; 20 ng/mL 25OHD3 serum sample, high end of 6-14% reagent range): 25%; percent inhibition by released 25OHD ([1]; 20 ng/mL 25OHD3 serum sample, low end of 6-14% reagent range): 12%; percent inhibition by released 25OHD ([1]; 40 ng/mL 25OHD3 serum sample, high end of 6-14% reagent range): 34%; percent inhibition by released 25OHD ([1]; 40 ng/mL 25OHD3 serum sample, low end of 6-14% reagent range): 16%; best percentage of individual release reagent (greatest gains in 25OHD release) ([1]; single release reagent in dissociation buffer): 14%; optimal concentration for dissociation buffer formulation [2]: about 10%; stability of dissociation buffer [4]: stable and could be stored at room temperature for weeks with no change in efficacy in the assay |
| CCCC[n+]1ccc(C)cc1.F[B-](F)(F)F | effective and generally compatible with the assay | – | – | time after manufacture until dissociation buffer became unreliable [4]: ≤ 7 days; pH of the dissociation buffer ([4]; after 1.5 days): 4.7; pH of the dissociation buffer ([4]; after 4 days): 4.07; pH of the dissociation buffer ([4]; after 7 day): 3.46; pH of the dissociation buffer ([4]; after 8 days): 2.79; pH of the dissociation buffer ([4]; after 9 days): 2.43; pH of the dissociation buffer ([4]; freshly made): 5.2 |
| 1-butyl-3-methylimidazolium octylsulfate | effective and generally compatible with the assay | – | – | – |
| C=C1/C(=C\C=C2/CCC[C@]3(C)[C@@H]([C@H](C)/C=C/[C@H](C)C(C)(C)O)CC[C@@H]23)C[C@@H](O)C[C@@H]1O [1,25(OH)2VitaminD2] | – | 94.1 | 0.00186 | % cross-reactivity ([5]; listed as 1,25(OH)2D2): 94% |
| C=C1/C(=C\C=C2/CCC[C@]3(C)[C@@H]([C@H](C)CCCC(C)(C)O)CC[C@@H]23)C[C@@H](O)C[C@@H]1O [1,25(OH)2VitaminD3] | – | 27.9 | 0.00627 | % cross-reactivity ([5]; listed as 1,25(OH)2D3): 28% |
| CCCCn1cc[n+](C)c1.F[B-](F)(F)F [1-butyl-3-methylimidazolium tetrafluoroborate] | effective and generally compatible with the assay | – | – | – |
| C=C1/C(=C\C=C2/CCC[C@]3(C)[C@@H]([C@H](C)/C=C/[C@H](C)C(C)C)CC[C@@H]23)C[C@@H](O)C[C@@H]1O [1α(OH)VitaminD2] | – | <0.01 | 1.43 | – |
| C=C1/C(=C\C=C2/CCC[C@]3(C)[C@@H]([C@H](C)CCCC(C)C)CC[C@@H]23)C[C@@H](O)C[C@@H]1O [1α(OH)VitaminD3] | – | 0.04 | 4.03 | – |
| CC(C)O [2-isopropanol] | ineffective release reagents at concentrations that were tolerable in the assay | – | – | – |
| C=C1CC[C@@H](O)C/C1=C/C=C1\CCC[C@]2(C)[C@@H]([C@H](C)CCCC(C)(C)O)CC[C@@H]12 [3-epi-25(OH)VitaminD3] | – | 50.87 | 0.00344 | % cross-reactivity ([5]; listed as 3-epimer of 25(OH)VitaminD3): 51% |
| C=C1CCC(O)C/C1=C\C=C1\CCCC2(C)C1CCC2C(C)CCC(O)C(C)(C)O (centres unmarked) [24,25(OH)2VitaminD3] | – | 1.25 | 0.14 | detection by the anti-25OHD antibody ([5]; 25OHD assay): neither the parent vitamin compounds nor the 24,25(OH)2VitaminD3 metabolite was detected to any appreciable degree |
| C=C1CC[C@H](O)C/C1=C/C=C1\CCC[C@]2(C)[C@@H]([C@H](C)/C=C/[C@H](C)C(C)(C)O)CC[C@@H]12 [25(OH)VitaminD2] | – | 87.94 | 0.00199 | % cross-reactivity ([5]; listed as 25OHD2): 88% |
| C=C1CC[C@H](O)C/C1=C/C=C1\CCC[C@]2(C)[C@@H]([C@H](C)CCCC(C)(C)O)CC[C@@H]12 [25(OH)VitaminD3] | – | 100 | 0.00175 | – |
| CC#N [Acetonitrile, acetonitrile] | ineffective release reagents at concentrations that were tolerable in the assay | – | – | – |
| CCCCC/C=C\C/C=C\C/C=C\C/C=C\CCCC(=O)O [Arachidonic acid, arachidonic acid] | did not aid in dissociating 25OHD from DBP | – | – | – |
| C[C@H](CCC(=O)NCCC[N+](C)(C)CCCS(=O)(=O)[O-])[C@H]1CC[C@H]2[C@@H]3[C@H](O)C[C@@H]4C[C@H](O)CC[C@]4(C)[C@H]3C[C@H](O)[C@]12C [CHAPS] | did not aid in dissociating 25OHD from DBP | – | – | – |

| Compound | release of 25OHD from DBP and maintaining 25OHD availability for antibody binding [3] | % cross-reactivity [5] [%] | ED50 [5] [µg/mL] | other results |
| --- | --- | --- | --- | --- |
| O[C@@H](CS)[C@@H](O)CS [DTT] | did not aid in dissociating 25OHD from DBP | – | – | – |
| O=C(O)CN(CCN(CC(=O)O)CC(=O)O)CC(=O)O [EDTA] | did not aid in dissociating 25OHD from DBP | – | – | – |
| CCCCCCCCCCCCOS(=O)(=O)[O-].[Na+] [SDS, sodium dodecyl sulfate] | did not aid in dissociating 25OHD from DBP | – | – | – |
| O=C(O)CCP(CCC(=O)O)CCC(=O)O [TCEP] | did not aid in dissociating 25OHD from DBP | – | – | – |
| CCCCCCCCCCCC(=O)OCCOCCOCCOCCOCCOCCOCCOCCOCCOCCOCCOCCOCCOCCOCCOCCOCCOCCOCCOCCOCC(OCCOCCOCCOCCOCCOCCOCCOCCOCCOCCOCCOCCOCCOCCOCCOCCOCCOCCOCCOCCO)C1OCC(OCCOCCOCCOCCOCCOCCOCCOCCOCCOCCOCCOCCOCCOCCOCCOCCOCCOCCOCCOCCO)C1OCCOCCOCCOCCOCCOCCOCCOCCOCCOCCOCCOCCOCCOCCOCCOCCOCCOCCOCCOCCO (centres unmarked) [Tween-20, Polysorbate 20] | did not aid in dissociating 25OHD from DBP | – | – | – |
| C=C1CC[C@H](O)C/C1=C/C=C1\CCC[C@]2(C)[C@@H]([C@H](C)/C=C/[C@H](C)C(C)C)CC[C@@H]12 [Vitamin D2] | – | 0.11 | 1.643 | – |
| C=C1CC[C@H](O)C/C1=C/C=C1\CCC[C@]2(C)[C@@H]([C@H](C)CCCC(C)C)CC[C@@H]12 [Vitamin D3] | – | 0.01 | 23.5 | – |
| CCCCCCCCCCCCCC[N+](C)(C)CCCS(=O)(=O)[O-] [Zwittergent 3-14] | – | – | – | tolerance in the assay [3]: not tolerated in the assay |
| CCO [ethanol] | ineffective release reagents at concentrations that were tolerable in the assay | – | – | – |
| N=C(N)N [guanidine HCl] | did not aid in dissociating 25OHD from DBP | – | – | – |
| CO [methanol] | ineffective release reagents at concentrations that were tolerable in the assay | – | – | – |
| O=C([O-])c1ccccc1O.[Na+] [sodium salicylate] | effective and generally compatible with the assay | – | – | preventing 25OHD re-uptake by DBP or binding to other cellular proteins/lipids [3]: appeared to be effective; effect towards dissociation of 25OHD from DBP [3]: did not show a large effect |
| NP-40 | – | – | – | tolerance in the assay [3]: not tolerated in the assay |
| Triton X-100 | – | – | – | tolerance in the assay [3]: not tolerated in the assay |
| casein | – | – | – | effect on absorbance signal and dynamic signal range ([3]; protein at or above 0.5% in the assay): negatively impacted absorbance signal and dynamic signal range |
| methyl β-cyclodextrin | effective and generally compatible with the assay | – | – | preventing 25OHD re-uptake by DBP or binding to other cellular proteins/lipids [3]: appeared to be effective; effect towards dissociation of 25OHD from DBP [3]: did not show a large effect |
